The values that follow come from PMC11018007, “Synthesis, carbonic anhydrase inhibition studies and modelling investigations of phthalimide–hydantoin hybrids” (Journal of Enzyme Inhibition and Medicinal Chemistry, 2024).

Molecules are shown by their SMILES.

In one experiment the target is T1, hCA VI (Homo sapiens, UniProt P23280).
T1 construct: gene CA6; secreted isoform; in-house recombinant protein; construct not described here
Briefly: stopped-flow CO2 hydrase assay. Format: biochemical. From the text:
stopped-flow CO2 hydrase assay on hCA VI

The target in the next experiment is T2, hCA IX (Homo sapiens, UniProt Q16790).
T2 construct: gene CA9
The experiment can be described thus: stopped-flow CO2 hydrase assay. Format: biochemical. The text has this:
stopped-flow CO2 hydrase assay on hCA IX

The nature of experiment [1]: stopped-flow CO2 hydrase assay. As to conditions: read-out: KI (μM) ^a / hCA I. Format: biochemical, Homo sapiens. From the text:
(§1) stopped-flow CO2 hydrase assay on hCA II

The target of the next experiment is T3, hCA VII (Homo sapiens, UniProt P43166).
T3 construct: gene CA7; in-house recombinant protein; construct not described here
The experiment can be described thus: stopped-flow CO2 hydrase assay. In kind it is biochemical. From the text:
stopped-flow CO2 hydrase assay on hCA VII

A further experiment concerns the target T4, hCA I (Homo sapiens, UniProt P00915).
T4 construct: gene CA1; recombinant from plasmid pACA/hCA I, E. coli BL21 (DE3)
Briefly: stopped-flow CO2 hydrase assay. In kind it is biochemical. From the text: stopped-flow CO2 hydrase assay on hCA I

The target in a further experiment is T5, hCA II (Homo sapiens, UniProt P00918).
T5 construct: gene CA2; recombinant from plasmid pACA/hCA II, E. coli BL21 (DE3)
Briefly: stopped-flow CO2 hydrase assay. Format: biochemical.
Description: as §1

T3 sequence (P43166 whole entry): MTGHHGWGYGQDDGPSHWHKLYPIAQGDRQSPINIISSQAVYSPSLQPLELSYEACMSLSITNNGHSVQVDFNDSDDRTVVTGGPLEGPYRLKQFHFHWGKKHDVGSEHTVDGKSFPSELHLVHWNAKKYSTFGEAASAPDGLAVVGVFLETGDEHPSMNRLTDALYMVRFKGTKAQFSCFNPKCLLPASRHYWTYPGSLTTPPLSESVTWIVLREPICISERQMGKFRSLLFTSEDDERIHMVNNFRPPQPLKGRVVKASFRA
T1 sequence (P23280 18-308): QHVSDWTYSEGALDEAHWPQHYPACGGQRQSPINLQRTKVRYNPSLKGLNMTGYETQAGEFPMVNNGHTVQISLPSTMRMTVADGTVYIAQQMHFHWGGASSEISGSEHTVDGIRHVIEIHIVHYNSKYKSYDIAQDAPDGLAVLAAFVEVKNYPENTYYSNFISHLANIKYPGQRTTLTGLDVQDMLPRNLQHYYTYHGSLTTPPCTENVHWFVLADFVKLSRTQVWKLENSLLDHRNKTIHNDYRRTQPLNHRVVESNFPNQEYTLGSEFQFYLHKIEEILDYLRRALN
T4 sequence (P00915 2-261): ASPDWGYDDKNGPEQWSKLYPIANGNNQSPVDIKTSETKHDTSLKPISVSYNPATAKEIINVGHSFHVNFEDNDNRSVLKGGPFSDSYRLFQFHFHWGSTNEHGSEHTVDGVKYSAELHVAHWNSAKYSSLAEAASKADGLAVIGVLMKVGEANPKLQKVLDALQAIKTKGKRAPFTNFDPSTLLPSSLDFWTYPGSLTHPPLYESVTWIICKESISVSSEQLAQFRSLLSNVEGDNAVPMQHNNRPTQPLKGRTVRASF

As to `O=C1CN(N2C(=O)c3ccccc3C2=O)C(=O)N1Cc1ccc([N+](=O)[O-])cc1` [6c, 2-(3-(4-Nitrobenzyl)-2,4-dioxoimidazolidin-1-yl)isoindoline-1,3-dione], the Ki at hCA VI is 50.2 µM; on hCA IX, 5.68 µM; in experiment [1], over 100 µM; at hCA VII, 37.6 µM; at hCA I it was over 100 µM.
For `O=C1CN(N2C(=O)c3ccc([N+](=O)[O-])cc3C2=O)C(=O)N1Cc1ccc([N+](=O)[O-])cc1` [6d, 5-Nitro-2-(3-(4-nitrobenzyl)-2,4-dioxoimidazolidin-1-yl)isoindoline-1,3-dione], the Ki on hCA VI is 49.8 µM; at hCA IX, 4.58 µM; in experiment [1] it was over 100 µM; at hCA VII it was 26.3 µM; at hCA I, over 100 µM.
For `O=C1CN(N2C(=O)c3ccccc3C2=O)C(=O)N1` [3a, Potassium 3-(1,3-dioxoisoindolin-2-yl)-2,5-dioxoimidazolidin-1-ide], the Ki at hCA VI is 0.405 µM; on hCA IX it was 0.331 µM; at hCA II it was 6.94 µM; on hCA VII it was 0.075 µM; on hCA I, over 100 µM.
Take `O=C1CN(N2C(=O)c3ccccc3C2=O)C(=O)N1Cc1ccccc1` [6a, 2-(3-Benzyl-2,4-dioxoimidazolidin-1-yl)isoindoline-1,3-dione]: the Ki is 57.7 µM on hCA VI; 3.73 µM at hCA IX; over 100 µM in experiment [1]; 33.7 µM at hCA VII; over 100 µM at hCA I.
In the case of `N#Cc1ccc(CN2C(=O)CN(N3C(=O)c4ccc([N+](=O)[O-])cc4C3=O)C2=O)cc1` [6f, 4-((3-(5-Nitro-1,3-dioxoisoindolin-2-yl)-2,5-dioxoimidazolidin-1-yl)methyl)benzonitrile], the Ki on hCA VI is 64.3 µM; at hCA IX, 6.49 µM; in experiment [1], over 100 µM; at hCA VII, 50.5 µM; on hCA I, over 100 µM.
For `O=C1CN(N2C(=O)c3ccc([N+](=O)[O-])cc3C2=O)C(=O)N1Cc1ccccc1` [6b, 2-(3-Benzyl-2,4-dioxoimidazolidin-1-yl)-5-nitroisoindoline-1,3-dione], the Ki on hCA VI was 40.2 µM; at hCA IX, 2.73 µM; in experiment [1] it was over 100 µM; on hCA VII, 45.9 µM; at hCA I it was over 100 µM.
Regarding `N#Cc1ccc(CN2C(=O)CN(N3C(=O)c4ccccc4C3=O)C2=O)cc1` [6e, 4-((3-(1,3-Dioxoisoindolin-2-yl)-2,5-dioxoimidazolidin-1-yl)methyl)benzonitrile], the Ki at hCA VI was 48.5 µM; at hCA IX it was 4.82 µM; in experiment [1] it was over 100 µM; on hCA VII, 59.1 µM; on hCA I, over 100 µM.
For the molecule `O=C1CN(N2C(=O)c3ccc([N+](=O)[O-])cc3C2=O)C(=O)N1` [3b, Potassium 3-(5-nitro-1,3-dioxoisoindolin-2-yl)-2,5-dioxoimidazolidin-1-ide], the Ki at hCA VI is 0.701 µM; at hCA IX, 0.488 µM; on hCA II it was 8.99 µM; on hCA VII it was 0.163 µM; at hCA I, over 100 µM.
For `O=C1CN(NC(=O)c2cc([N+](=O)[O-])ccc2C(=O)O)C(=O)N1` [compound 5, 2-((2,4-Dioxoimidazolidin-1-yl)carbamoyl)-4-nitrobenzoic acid] the same measures were 10.5 µM, 4.06 µM, 58.6 µM, 13.9 µM and over 100 µM.
